Test system: WT SARS-CoV-2 or OTS4-5-7-8 in VeroE6/TMPRSS2 cells
Assay type: cell-based

CC(C)C(=O)OC[C@H]1O[C@@H](n2ccc(NO)nc2=O)[C@H](O)[C@@H]1O [molnupiravir]
number of infectious virus particles in a TCID50 virus assay on adding a mutagen: reduced the number of infectious virus particles
